Data published in PMC7305236, “The atypical chemokine receptor ACKR3/CXCR7 is a broad-spectrum scavenger for opioid peptides” (Nature Communications, 2020).
Read-outs that look alike come from different tables or passages of the source.

Assays:
CXCR4 = target: T1, CXCR4 (Homo sapiens, UniProt P61073); type: cell-based
T1 construct: expressed in transfected cells; host or cells: U87, transient cotransfection of pNBe vectors

NOP = NOP (Homo sapiens, UniProt P41146); test: Activity of ligands towards NOP (source data Fig 4a, 4c); type: cell-based; conditions: 100 nM
Chain of NOP (P41146 whole entry): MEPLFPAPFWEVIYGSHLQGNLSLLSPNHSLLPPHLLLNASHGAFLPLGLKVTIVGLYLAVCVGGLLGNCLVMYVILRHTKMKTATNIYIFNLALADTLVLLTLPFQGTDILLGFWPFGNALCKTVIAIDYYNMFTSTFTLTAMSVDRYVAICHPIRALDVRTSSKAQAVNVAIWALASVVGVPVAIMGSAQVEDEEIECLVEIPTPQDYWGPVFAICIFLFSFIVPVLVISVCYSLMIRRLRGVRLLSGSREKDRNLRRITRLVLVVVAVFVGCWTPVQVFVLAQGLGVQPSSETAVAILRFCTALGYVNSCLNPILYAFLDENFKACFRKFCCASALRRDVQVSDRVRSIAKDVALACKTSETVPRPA

DOR = target: T2, DOR (Homo sapiens, UniProt P41143); type: cell-based; conditions: 100 nM
T2 construct: expressed in transfected cells; host or cells: U87 (human glioblastoma)
T2 sequence (P41143 whole entry): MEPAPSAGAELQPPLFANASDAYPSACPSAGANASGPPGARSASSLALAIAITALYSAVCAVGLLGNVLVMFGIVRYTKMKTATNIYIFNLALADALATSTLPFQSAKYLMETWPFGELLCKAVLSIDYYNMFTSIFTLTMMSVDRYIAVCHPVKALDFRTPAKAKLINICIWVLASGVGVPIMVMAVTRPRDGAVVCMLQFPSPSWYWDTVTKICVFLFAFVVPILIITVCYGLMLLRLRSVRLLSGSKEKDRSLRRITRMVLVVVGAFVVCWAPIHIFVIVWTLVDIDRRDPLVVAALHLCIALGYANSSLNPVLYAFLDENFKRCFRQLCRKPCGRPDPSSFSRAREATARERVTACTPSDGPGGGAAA

KOR [1] = target: T3, KOR (Homo sapiens, UniProt P41145); type: cell-based; set-up: expressed in transfected cells; host or cells: U87 (human glioblastoma), transient co-transfection; conditions: 100 nM
T3 sequence (P41145 whole entry): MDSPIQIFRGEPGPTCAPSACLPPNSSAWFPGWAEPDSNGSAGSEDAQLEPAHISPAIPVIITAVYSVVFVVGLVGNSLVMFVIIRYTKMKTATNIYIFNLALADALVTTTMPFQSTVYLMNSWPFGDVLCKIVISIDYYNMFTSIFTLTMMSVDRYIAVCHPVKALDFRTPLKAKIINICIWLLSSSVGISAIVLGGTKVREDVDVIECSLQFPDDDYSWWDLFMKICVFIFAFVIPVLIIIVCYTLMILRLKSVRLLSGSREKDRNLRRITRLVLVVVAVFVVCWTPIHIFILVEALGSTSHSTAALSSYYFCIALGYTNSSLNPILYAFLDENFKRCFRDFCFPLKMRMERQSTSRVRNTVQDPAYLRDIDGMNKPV

ACKR3 [2] = target: T4, ACKR3 (Homo sapiens, UniProt P25106); type: cell-based; set-up: expressed in transfected cells; conditions: 100 nM
T4 sequence (P25106 whole entry): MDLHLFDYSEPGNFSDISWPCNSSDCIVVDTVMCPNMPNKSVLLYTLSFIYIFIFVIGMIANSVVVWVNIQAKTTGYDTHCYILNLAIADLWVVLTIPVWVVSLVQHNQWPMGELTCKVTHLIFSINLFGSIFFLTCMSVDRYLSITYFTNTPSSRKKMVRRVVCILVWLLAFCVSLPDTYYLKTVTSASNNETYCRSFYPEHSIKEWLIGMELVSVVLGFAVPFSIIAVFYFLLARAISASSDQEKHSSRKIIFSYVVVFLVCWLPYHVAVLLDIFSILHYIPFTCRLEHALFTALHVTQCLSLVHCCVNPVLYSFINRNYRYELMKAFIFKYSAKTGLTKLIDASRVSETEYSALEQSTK

KOR [3] = target: T3, KOR; test: Figure 6h, KOR, DMSO vs Bafilomycin treatment; type: cell-based; set-up: expressed in transfected cells; host or cells: U87 (human glioblastoma); conditions: n = 3 or 4 as in cell
ACKR = target: T5, ACKR (Homo sapiens, UniProt P25106); test: Figure 6h, ACKR, DMSO vs Bafilomycin treatment; type: cell-based; conditions: n = 3 or 4 as in cell
T5 construct: expressed in transfected cells; host or cells: U87 cells (human glioblastoma)
T5 sequence (P25106 whole entry): as above

CCR1 = target: T6, CCR1 (Homo sapiens, UniProt P32246); test: Figure S2a opioid peptide screen on chemokine receptors; type: cell-based; set-up: dose or concentration left out as unconfirmed; conditions: replicate 1, read-out: CCR1 activity, ctrl+ = 100
T6 construct: expressed in transfected cells
T6 sequence (P32246 1-355): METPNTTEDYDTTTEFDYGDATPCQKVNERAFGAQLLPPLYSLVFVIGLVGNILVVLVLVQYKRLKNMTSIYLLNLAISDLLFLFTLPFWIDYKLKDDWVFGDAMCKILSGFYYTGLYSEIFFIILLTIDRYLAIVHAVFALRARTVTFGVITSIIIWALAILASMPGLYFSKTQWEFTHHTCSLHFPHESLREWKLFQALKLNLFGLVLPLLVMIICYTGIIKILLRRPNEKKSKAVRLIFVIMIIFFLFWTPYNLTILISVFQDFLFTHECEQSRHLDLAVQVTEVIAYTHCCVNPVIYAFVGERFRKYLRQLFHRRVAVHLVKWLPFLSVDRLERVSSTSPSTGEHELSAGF

ACKR2 = target: T7, ACKR2 (Homo sapiens, UniProt O00590); test: as above; type: cell-based; set-up: dose or concentration left out as unconfirmed; conditions: replicate 2, read-out: ACKR2 activity, ctrl+ = 100
T7 construct: expressed in transfected cells; host or cells: U87 cells (human glioblastoma)
T7 sequence (O00590 1-384): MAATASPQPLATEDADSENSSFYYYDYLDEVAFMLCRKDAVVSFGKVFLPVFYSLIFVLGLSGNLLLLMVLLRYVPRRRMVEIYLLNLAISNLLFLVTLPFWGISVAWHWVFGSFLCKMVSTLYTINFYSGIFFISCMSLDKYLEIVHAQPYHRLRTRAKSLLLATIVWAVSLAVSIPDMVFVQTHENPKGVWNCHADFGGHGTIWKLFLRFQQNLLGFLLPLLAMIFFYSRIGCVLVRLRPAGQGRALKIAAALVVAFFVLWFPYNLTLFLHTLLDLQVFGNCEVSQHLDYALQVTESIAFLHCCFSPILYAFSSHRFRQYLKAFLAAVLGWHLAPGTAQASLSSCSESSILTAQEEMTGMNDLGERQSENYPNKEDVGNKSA

ACKR3 [4] = target: T4, ACKR3; test: cell-based; set-up: dose or concentration left out as unconfirmed; conditions: read-out: ACKR3 activity, ctrl+ = 100, Figure S2a; replicate 2
CXCR3A = target: T8, CXCR3A (Homo sapiens, UniProt P49682); test: Figure S2a opioid peptide screen on chemokine receptors; type: cell-based; set-up: dose or concentration left out as unconfirmed; conditions: replicate 1, read-out: CXCR3A activity, ctrl+ = 100
T8 construct: expressed in transfected cells; host or cells: U87 cells
T8 sequence (P49682 1-368): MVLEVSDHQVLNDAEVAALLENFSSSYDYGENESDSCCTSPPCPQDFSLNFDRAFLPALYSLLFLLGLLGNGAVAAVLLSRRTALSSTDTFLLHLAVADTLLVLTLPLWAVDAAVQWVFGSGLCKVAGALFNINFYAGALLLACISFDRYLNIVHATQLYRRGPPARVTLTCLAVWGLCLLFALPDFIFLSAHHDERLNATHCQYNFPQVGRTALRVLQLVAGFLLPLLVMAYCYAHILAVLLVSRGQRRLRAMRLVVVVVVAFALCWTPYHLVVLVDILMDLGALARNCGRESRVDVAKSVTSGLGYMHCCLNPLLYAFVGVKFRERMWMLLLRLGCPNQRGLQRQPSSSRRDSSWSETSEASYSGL

CCR6 = target: T9, CCR6 (Homo sapiens, UniProt P51684); test: as above; type: cell-based; set-up: dose or concentration left out as unconfirmed; conditions: replicate 1, read-out: CCR6 activity, ctrl+ = 100
T9 construct: expressed in transfected cells
T9 sequence (P51684 1-374): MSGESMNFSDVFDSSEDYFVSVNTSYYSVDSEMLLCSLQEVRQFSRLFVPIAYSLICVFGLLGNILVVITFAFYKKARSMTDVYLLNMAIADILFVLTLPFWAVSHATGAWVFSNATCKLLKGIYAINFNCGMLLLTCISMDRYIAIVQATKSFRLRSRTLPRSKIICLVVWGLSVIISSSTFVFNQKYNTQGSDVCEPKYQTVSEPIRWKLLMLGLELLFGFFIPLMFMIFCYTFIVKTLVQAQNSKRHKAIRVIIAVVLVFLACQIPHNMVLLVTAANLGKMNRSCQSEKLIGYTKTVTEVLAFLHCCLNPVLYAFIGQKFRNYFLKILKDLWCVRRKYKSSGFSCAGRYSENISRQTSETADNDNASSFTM

CCR3 = target: T10, CCR3 (Homo sapiens, UniProt P51677); test: as above; set-up: dose or concentration left out as unconfirmed; conditions: read-out: CCR3 activity, ctrl+ = 100, Figure S2a
T10 sequence (P51677 1-355): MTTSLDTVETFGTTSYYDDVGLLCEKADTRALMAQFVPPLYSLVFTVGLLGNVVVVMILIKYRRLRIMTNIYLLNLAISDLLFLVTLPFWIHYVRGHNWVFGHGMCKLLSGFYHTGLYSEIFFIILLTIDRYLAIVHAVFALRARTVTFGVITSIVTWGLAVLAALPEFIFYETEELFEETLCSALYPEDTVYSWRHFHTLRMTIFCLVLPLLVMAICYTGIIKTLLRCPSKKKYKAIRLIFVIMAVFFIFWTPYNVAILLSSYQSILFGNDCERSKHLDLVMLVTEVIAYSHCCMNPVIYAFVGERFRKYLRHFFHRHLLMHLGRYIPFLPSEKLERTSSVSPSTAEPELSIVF

U87 ACKR3 = target: T11, U87 ACKR3 (Homo sapiens, UniProt P25106); test: Figure 6c source data, U87 ACKR3; type: cell-based; conditions: Figure 6c inset, U87 ACKR3 + labelled peptide, titrated agonist not given
T11 construct: expressed in transfected cells
T11 sequence (P25106 whole entry): as the sequence (P25106 whole entry) above

CXCR7 = target: T12, CXCR7 (Homo sapiens, UniProt P25106); test: Figure S1a: screen of opioid peptides on CXCR7; type: cell-based
T12 construct: expressed in transfected cells; host or cells: U87 cells
T12 sequence (P25106 whole entry): as the sequence (P25106 whole entry) above

[5] = 'DMSO vs Bafilomycin treatment'
[6] = first of two columns under 'DMSO vs Bafilomycin treatment' (presumably DMSO)

T1 sequence (P61073 whole entry): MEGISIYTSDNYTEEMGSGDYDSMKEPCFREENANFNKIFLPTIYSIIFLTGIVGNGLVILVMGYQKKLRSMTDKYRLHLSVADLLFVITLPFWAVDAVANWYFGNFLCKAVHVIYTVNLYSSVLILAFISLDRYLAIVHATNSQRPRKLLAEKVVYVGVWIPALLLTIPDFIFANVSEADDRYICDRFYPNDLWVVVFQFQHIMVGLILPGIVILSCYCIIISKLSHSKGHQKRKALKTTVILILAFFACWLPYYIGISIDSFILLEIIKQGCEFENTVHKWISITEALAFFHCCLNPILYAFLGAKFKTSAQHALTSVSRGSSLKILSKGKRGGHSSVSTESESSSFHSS

c1cc(CN2CCCNCCNCCCNCC2)ccc1CN1CCCNCCNCCCNCC1 [AMD3100]
Figure S1a value, CXCR4 (CXCR4; replicate 1): -2.401 | Figure S1a value, CXCR4 (CXCR4; replicate 2): 38.4908

C=CCN1CC[C@]23CCCC[C@H]2[C@H]1Cc1ccc(O)cc13 [Levallorphan]
NOP activity, Fig 4a (NOP; replicate 1): 19.6254 | NOP activity, Fig 4a (NOP; replicate 2): -2.413 | NOP activity, Fig 4a (NOP; replicate 3): -13.909 | DOR activity, Fig 4a (DOR; replicate 1): -48.6722 | DOR activity, Fig 4a (DOR; replicate 2): -49.4812 | DOR activity, Fig 4a (DOR; replicate 3): -45.6651 | KOR activity, Fig 4a (KOR [1]; replicate 1): -79.0502 | KOR activity, Fig 4a (KOR [1]; replicate 2): -66.9071 | KOR activity, Fig 4a (KOR [1]; replicate 3): -81.2861 | ACKR3 activity, Fig 4a (ACKR3 [2]; replicate 1): 29.7947 | ACKR3 activity, Fig 4a (ACKR3 [2]; replicate 2): -20.4867 | ACKR3 activity, Fig 4a (ACKR3 [2]; replicate 3): -0.5025

Oc1ccc2c3c1O[C@H]1c4[nH]c5c(c4C[C@@]4(O)[C@@H](C2)N(CC2CC2)CC[C@]314)C[C@@]1(O)[C@H]2Cc3ccc(O)c4c3[C@@]1(CCN2CC1CC1)[C@H]5O4 [nor-Binaltrophimine]
NOP activity, Fig 4a (NOP; replicate 1): 13.2975 | NOP activity, Fig 4a (NOP; replicate 2): 23.1448 | NOP activity, Fig 4a (NOP; replicate 3): -11.7109 | ACKR3 activity, Fig 4a (ACKR3 [2]; replicate 1): 6.23 | ACKR3 activity, Fig 4a (ACKR3 [2]; replicate 2): 7.454 | ACKR3 activity, Fig 4a (ACKR3 [2]; replicate 3): 1.2819

CSCC[C@H](NC(=O)[C@H](Cc1ccccc1)NC(=O)CNC(=O)CNC(=O)[C@@H](N)Cc1ccccc1)C(=O)N[C@@H](CCCNC(=N)N)C(=O)N[C@@H](CCCNC(=N)N)C(=O)N[C@@H](CCCCN)C(N)=O [LIH383]
Mean ± SEM (Figure 6h, KOR) (KOR [3]; [5]): 102,6 ± 3,011, n=3 | Mean ± SEM (Figure 6h, KOR) (KOR [3]; [6]): 99,75 ± 4,761, n=3 | Mean ± SEM (Figure 6h, ACKR) (ACKR; [5]): 25,99 ± 1,65, n=3 | Mean ± SEM (Figure 6h, ACKR) (ACKR; [6]): 41,87 ± 2,846, n=3

Oc1ccc2c3c1O[C@H]1c4[nH]c5ccccc5c4C[C@@]4(O)[C@@H](C2)N(CC2CC2)CC[C@]314 [Naltrindole]
ACKR3 activity, Fig 4a (ACKR3 [2]; replicate 1): 7.799 | ACKR3 activity, Fig 4a (ACKR3 [2]; replicate 2): 7.647 | ACKR3 activity, Fig 4a (ACKR3 [2]; replicate 3): 1.281

Buprenorphine
ACKR3 activity, Fig 4a (ACKR3 [2]; replicate 1): -5.792 | ACKR3 activity, Fig 4a (ACKR3 [2]; replicate 2): 26.4917 | ACKR3 activity, Fig 4a (ACKR3 [2]; replicate 3): -14.8896

CC[C@H](C)[C@H](NC(=O)[C@H](C)NC(=O)[C@H](CC(N)=O)NC(=O)[C@H](CCCCN)NC(=O)[C@H](Cc1ccccc1)NC(=O)[C@H](CC(C)C)NC(=O)[C@@H](NC(=O)[C@@H](NC(=O)[C@H](CC(C)C)NC(=O)[C@@H]1CCCN1C(=O)[C@@H](NC(=O)[C@H](CCC(N)=O)NC(=O)[C@H](CO)NC(=O)[C@H](CCCCN)NC(=O)[C@H](CCC(=O)O)NC(=O)[C@H](CO)NC(=O)[C@@H](NC(=O)[C@H](CCSC)NC(=O)[C@H](Cc1ccccc1)NC(=O)CNC(=O)CNC(=O)[C@@H](N)Cc1ccc(O)cc1)[C@@H](C)O)[C@@H](C)O)C(C)C)[C@@H](C)O)C(=O)N[C@H](C(=O)N[C@@H](CCCCN)C(=O)N[C@@H](CC(N)=O)C(=O)N[C@@H](C)C(=O)N[C@@H](Cc1ccc(O)cc1)C(=O)N[C@@H](CCCCN)C(=O)N[C@@H](CCCCN)C(=O)NCC(=O)N[C@@H](CCC(=O)O)C(=O)O)[C@@H](C)CC [-endorphin]
activation (CCR1): 6.2% | activation (ACKR2): 16.8% | activation (ACKR3 [4]): 3.39% | activation (CXCR3A): 2.35% | activation (CCR6): 1.21% | activation (CCR3; replicate 1): 5.63% | activation (CCR3; replicate 2): 8.01%

C=CCN1CC[C@]23c4c5ccc(O)c4O[C@H]2C(=O)CC[C@@]3(O)[C@H]1C5 [Naloxone]
ACKR3 activity, Fig 4a (ACKR3 [2]; replicate 1): -16.5596 | ACKR3 activity, Fig 4a (ACKR3 [2]; replicate 2): -16.7812 | ACKR3 activity, Fig 4a (ACKR3 [2]; replicate 3): -9.5257

H-MRRKFGGF-NH2 [LIH inverse]
EC50 (U87 ACKR3; replicate 1): 64.8 nM | EC50 (U87 ACKR3; replicate 2): 119 nM | EC50 (U87 ACKR3; replicate 3): 112 nM | EC50 (U87 ACKR3; replicate 4): 71.7 nM

CXCL11
Figure S1a value, CXCR7 (CXCR7; replicate 1): 84.3234 | Figure S1a value, CXCR7 (CXCR7; replicate 2): 115.296 | Figure S1a value, CXCR4 (CXCR4; replicate 1): 49.1082 | Figure S1a value, CXCR4 (CXCR4; replicate 2): 78.3882
